Test results reported in patent EP0835604A1, “Halopropargyl compounds as marine antifouling agents” (ROHM AND HAAS COMPANY, priority 1996, dated 1998).

How the values were obtained:
Artemia = assay: Toxicity to Artemia nauplii in ASTM sea water, 96 well plate serial dilution; type: in vivo, Artemia salina; conditions: 24 Hours; highest dilution in which all of the nauplii are dead; 25 °C
Protocol: Tests were conducted to determine the toxicity of the marine antifouling agents of the invention to Artemia. Artemia are indicative of hard fouling organisms.
Substitute ocean water was prepared following ASTM Method D 1141-90. The water was sterilized by filtration through a 0.22 micron cellulose acetate membrane filter. San Francisco Bay Brand® Artemia salina cysts were purchased from a local aquarium supply store. The cysts were hatched in a 250 mL Erlenmeyer flask. The Artemia cysts (0.2 g) were weighed into a sterilized flask. One hundred mL of sterile ASTM sea water was added to the flask. The flask was placed on an orbital shaker set at approximately 150 rotations per minute and 28 °C. After 24 hours, the contents of the flask were poured into a separatory funnel. The egg shells were separated from the Artemia nauplii (larvae), as the shells floated to the top. The nauplii were returned to the flask for another 24 hours shaking. The inoculum was prepared by pouring the nauplii into a crystallizing dish 48 hours after the cysts were originally placed on the shaker. After the nauplii congregated, they were taken up in a sterile serological pipette and transferred into another crystallizing dish. […] The number of nauplii in 3 to 4 wells was counted under a microscope. […]
Plates were read under a low magnification microscope 24 and 48 hours after the nauplii were added to the plate. […]

[1] = tested on: Amphora coffeaeformis var. perpusilla; assay: Toxicity to Amphora: growth inhibition by chlorophyll a concentration; type: cell-based; conditions: 96 hours at 20 °C, % inhibition of the mean control; for EC 50: dose effective at preventing 50% growth; for EC 100: dose effective at preventing 100% growth
Protocol: Tests were conducted to determine the toxicity of the marine antifouling agents of the invention to Amphora. Amphora are indicative of soft fouling organisms. Amphora coffeaeformis var. perpusilla was isolated from a natural biofilm and cultured axenically in Guillard's F2 medium. A log phase culture of Amphora was diluted with the F2 medium to give a chlorophyll a concentration of 0.25 µg/mL. Chlorophyll a was measured by passing a measured volume (FV) of cell culture through a 3 µm pore, 25 mm diameter cellulose nitrate filter. The filter plus trapped algal cells was transferred to a glass tube. A measured volume (SV) of DMSO solvent was added to the glass tube. The tubes were incubated for 1.5 hours in darkness. After incubation, the absorbance of the sample was read in a spectrophotometer at 630 and 664 nm against a DMSO/filter blank. The chlorophyll a concentration can be calculated using the following equation: Chlorophylla(µg/mL) = 11.47 x Abs664 - 0.4 x Abs630 x SV/FV [formula] Ten mL of the diluted culture was pipetted into glass tubes. Ten µL of marine antifouling agent or, in the case of controls, DMF was added to each glass tube. The tubes were incubated on an illuminated orbital shaker at 20 °C for 96 hours before the chlorophyll a concentration of each tube was measured Three replicates of each treatment were used. The effects of marine antifouling agents are calculated as % inhibition of the mean control. The EC 50 is the dose effective at preventing 50% growth. The EC 100 is the dose effective at preventing 100% growth.

SMILES	Artemia LC 100 (Artemia) [ppm]	EC 50 [1] [ppm]	EC 100 [1] [ppm]
CCCCCCCC[N+](CC#CBr)(CCCCCCCC)CCCCCCCC.O=S(=O)([O-])c1ccccc1 [Compound 18, trioctyl-(3-bromopropargyl)ammonium benzenesulfonate]	<8		
CCCCCCCCCCCCCC[N+]1(CC#CI)CCCC1.Cc1ccc(S(=O)(=O)[O-])cc1 [Compound 36, 1-tetradecyl-1-(3-iodopropargyl)-pyrrolidinium 4-methylbenzenesulfonate]	1	1.9	5
CC1(C)C(=O)N(Cc2ccccc2)C(=O)N1CC#CI [Compound 138, 1-(3-iodopropargyl)-3-benzyl-5,5-dimethylhydantoin]		2.5	20
O=c1oc2ccccc2n1CC#CI [Compound 146, 3-(3-iodopropargyl)-2-benzoxazolone]		3	20
